In patent US8507195B2, “MiRNAs dysregulated in triple-negative breast cancer” (The Regents of the University of Colorado, priority 2009, dated 2013):

Assays:
Assay type in all cases: cell-based
[1] = test system: BT549 (triple negative) cells; experiment: Apoptosis (PARP cleavage immunoblot) in triple-negative (BT549) cells; conditions: TN cells (BT549), 50 nM mimic, 72 h
Description: (§1) Transfections. BT549 or MDA-MB-231 cells were plated one day prior to transfection. Lipofectamine 2000 (Invitrogen) was incubated with the miRNA mimics for miR-22, miR-221, miR-193b or miR-7 (Ambion) or scrambled negative control (Ambion) at a concentration of 50 nM incubated in serum free media for 20 minutes prior to addition to the cells. Cells were incubated with the transfection mix at 37° C. for 4 h before replacement of FBS to 5%. Protein was harvested 72 h post-transfection using RIPA lysis buffer (1% NP40, 0.5% NaDeoxycholate, 0.1% SDS, 50 mM Tris, 150 mM NaCl, 5 mM EDTA) containing protease inhibitors.
(§2) Immunoblotting. Cell lysates (50 μg) in SDS sample buffer were denatured and separated on 8% SDS PAGE gels and transferred to PVDF membranes. The membranes were blocked in 5% milk in TBS-T, and then probed overnight at 4° C. […] After incubation with appropriate HRP-conjugated secondary antibody, results were detected using Western Lightning Chemiluminescence Reagent Plus (Perkin Elmer).

[2] = test system: MCF10A (normal immortalized) cells; experiment: Apoptosis in MCF10A cells after miR-193b transfection
FASN = experiment: Immunoblot of FASN in triple-negative (BT549) cells after miR-193b mimic transfection; conditions: TN cells (BT549), 50 nM mimic, 72 h
Description: as §1, §2

MCF7 cells = experiment: Real time RT-PCR of miRNAs in hormone-treated MCF7 cells; conditions: MCF7, estradiol and ICI
Description: Hormone Treatments. MCF7 cells were grown in phenol red-free media containing charcoal stripped serum for 24 hours prior to hormone treatments. The cells were treated with ethanol, 10 nM estradiol or a combination of 10 nM estradiol and 1 mM ICI 182,780 (ICI, Tocris Bioscience) for 6 h, 24 h or 48 h, as indicated, before harvesting RNA using Trizol (Invitrogen) as per the manufacturer's instructions.
Real Time RT-PCR. Poly A tailing and reverse transcription was performed using the NCode miRNA qRT-PCR kit (Invitrogen) as per manufacturer's instructions. SYBR green real time RT-PCR was performed using the Universal Forward Primer (Invitrogen) and miRNA specific primers. The specific primers used were: miR-193b 5′-[…]-3′ (SEQ ID NO: 10); miR-19b 5′-[…]-3′ (SEQ ID NO: 11); miR-20a 5′-[…]-3′ (SEQ ID NO: 12); miR-106a 5′-[…]-3′ (SEQ ID NO: 13); and miR-92b* 5′-[…]-3′ (SEQ ID NO: 14). Reported values are the means and standard errors of 3 biological replicates.
For miR-22, miR-221 and miR-7, taqman real time PCR was performed. Prior to generating cDNA, mRNA was treated with DNase1 (Invitrogen) for 15 min at room temperature. RNA was reverse transcribed into cDNA in a reaction containing reaction buffer, 10 mM DTT, 1 mM dNTPs, RNAse inhibitor (Promega), random hexamers (250 ng) and 200 U of MMUV-RT (ABI). The reaction proceeded at 25° C. for 10 min, then at 37° C. for 1 h. For normalization, real time RT-PCR was performed on the cDNA using ribosomal RNA primers and probe (ABI). TaqMan mRNA Reverse Transcription kit was used to generate cDNA for real time RT-PCR reaction in conjunction with a miR-22, miR-221 or miR-7 specific primers and probe (ABI). Reported values are the means and standard errors of three biological replicates.
The relative mRNA or miRNA levels were calculated using the comparative Ct method (ΔΔCt). Briefly, the Ct (cycle threshold) values for the rRNA were subtracted from Ct values of the target gene to achieve the ΔCt value. The 2^−ΔCt was calculated for each sample and then each of the values was then divided by a control sample to achieve the relative miRNA levels (ΔΔCt).

ESR1 3′UTR = experiment: Luciferase reporter assay, ESR1 3′UTR region ESR1-1, in MCF7 cells; conditions: ESR1-1 reporter, 50 nM each mimic, versus scrambled negative control
Source text: Luciferase Assays. A 360 bp fragment of the 3′ untranslated region of ESR1 containing the putative binding sites for miR-203, miR-221 and miR-22 was amplified by PCR from HeLa genomic DNA (NEB) using the following primers: ESR1-1 F 5′-[…]-3′ (SEQ ID NO: 6) and ESR1-1 R 5′-[…]-3′ (SEQ ID NO: 7). A 680 bp fragment containing the putative binding sites for miR-130/301, miR-148/152, miR-19 and miR-26 was amplified using the following primers: ESR1-2 F 5′-[…]-3′ (SEQ ID NO: 8) and ESR1-2 R 5′-[…]-3′ (SEQ ID NO: 9). MCF7 cells (20,000 cells/well) in a 96-well plate were transfected with the 100 nM of the negative control, 50 nM each of the miR-22, miR-221 or both as described above. After 24 h, the firefly reporter plasmid (0.196 μg) and a renilla luciferase normalization plasmid (0.004 μg/pRL-SV40, Promega) were transfected in using Lipofectamine 2000. Cells were collected 48 hours later for assay using the Dual Luciferase Reporter assay system (Promega).

## miR-193b mimic: miRNA mimic for miR-193b (Ambion); miR-193b is SEQ ID NO:1 aacuggcccucaaagucccgcu (AACUGGCCCUCAAAGUCCCGCU; mimic duplex, complementary strand not listed, further chemistry not given here)
[1]
  PARP cleavage: complete PARP cleavage
  apoptosis, as seen by the appearance of cleaved PARP: increase in apoptosis
[2]
  apoptosis: no apoptosis
FASN
  FASN protein: almost complete repression

## C[C@]12CC[C@@H]3c4ccc(O)cc4C[C@@H](CCCCCCCCC[S+]([O-])CCCC(F)(F)C(F)(F)F)[C@H]3[C@@H]1CC[C@@H]2O (stereo partly drawn) [ICI, ICI 182,780]
MCF7 cells; 24 h
  estradiol effect on miR-92b*: reversed
MCF7 cells; 48 h
  estradiol effect on miR-19b: abrogated
  estradiol effect on miR-20a: abrogated
  estradiol effect on miR-106a: abrogated

## miR-221 mimic: miRNA mimic for miR-221 (Ambion); hsa-miR-221 sequence agcuacauugucugcuggguuuc (AGCUACAUUGUCUGCUGGGUUUC; chemistry not given here)
ESR1 3′UTR
  decrease in luciferase activity: 13.7%
